From US20220015365A1, “SYNERGISTIC HERBICIDE COMPOSITION OF BROAD-SPECTRUM FOR THE CONTROL OF WEEDS IN AGRICULTURAL CULTURES, USE OF SUCH COMPOSITION FOR PREPARATION OF PRODUCT, PRODUCT AND METHOD OF APPLICATION” (priority 2018, published 2022)

Tests used:
[1] = test system: Brachiaria decumbens; test: Pre-emergence weed control in soil prepared with weed seeds, synergy by Colby equation; type: in vivo; details: 35 days after application
Experimental: (§1) Protocol: in soil prepared with weed seeds (without germination), the composition of the present invention was applied. This test was performed for two species of weeds: Brachiaria decumbens and Panicum maximum. Data were collected 35 days after application of the composition to the soil and calculated. […] Colby equation: to use Colby's approach to evaluate synergy or antagonism in combinations, the components of the combination should be tested individually in their concentration of components in the same study as the combination. The results observed for the combination are compared with the expected results of the Colby Equation (Colby, 1967). Note that this equation is derived from the definition of the probability of independence. […] […].2. Criteria of the analysis: • If the value observed is higher than expected (Obs>E): synergy; • If the value observed is lower than expected (Obs<E): antagonism.

[2] = test system: Panicum maximum; test: as above; type: in vivo; details: 35 days after application
Experimental: as §1

## C#CCN1C(=O)COc2cc(F)c(N3C(=O)C4=C(CCCC4)C3=O)cc21 [Flumioxazin, N-(7-Fluor-3,4-dihydro-3-oxo-4-prop-2-inyl-2H-1,4-benzoxazin-6-yl)cyclohex-1-en-1,2-dicarboximide]
[1]; Flumioxazin 47.60 g ai/ha
  Control % BRADC Observed: 81.25%
[1]; Flumioxazin 103.10 g ai/ha
  Control % BRADC Observed: 83.75%
[1]; Flumioxazin 176.80 g ai/ha
  Control % BRADC Observed: 92.75%
[1]; Flumioxazin 380.00 g ai/ha
  Control % BRADC Observed: 90.00%
[2]; Flumioxazin 24.75 g ai/ha
  Control % PANMA Observed: 81.25%
[2]; Flumioxazin 33.00 g ai/ha
  Control % PANMA Observed: 88.75%
[2]; Flumioxazin 47.60 g ai/ha
  Control % PANMA Observed: 89.50%
[2]; Flumioxazin 63.46 g ai/ha
  Control % PANMA Observed: 97.00%
[2]; Flumioxazin 103.10 g ai/ha
  Control % PANMA Observed: 98.75%
[2]; Flumioxazin 137.50 g ai/ha
  Control % PANMA Observed: 97.50%
[2]; Flumioxazin 176.80 g ai/ha
  Control % PANMA Observed: 97.55%
[2]; Flumioxazin 235.70 g ai/ha
  Control % PANMA Observed: 99.00%
[2]; Flumioxazin 380.00 g ai/ha
  Control % PANMA Observed: 97.50%
[2]; Flumioxazin 507.70 g ai/ha
  Control % PANMA Observed: 98.75%

## CC(C)c1nn(C(=O)NC(C)(C)C)c(=O)n1N [Amicarbazone, 4-Amino-N-(tert-butyl)-3-isopropyl-5-oxo-4,5-dihydro-1H-1,2,4-triazole-1-carboxamide]
[1]; Amicarbazone 238.00 g ai/ha
  Control % BRADC Observed: 52.50%
[1]; Amicarbazone 442.00 g ai/ha
  Control % BRADC Observed: 66.25%
[1]; Amicarbazone 515.60 g ai/ha
  Control % BRADC Observed: 62.50%
[1]; Amicarbazone 571.15 g ai/ha
  Control % BRADC Observed: 77.50%
[2]; Amicarbazone 238.00 g ai/ha
  Control % PANMA Observed: 83.25%
[2]; Amicarbazone 317.30 g ai/ha
  Control % PANMA Observed: 75.00%
[2]; Amicarbazone 442.00 g ai/ha
  Control % PANMA Observed: 0.00%
[2]; Amicarbazone 515.60 g ai/ha
  Control % PANMA Observed: 90.00%
[2]; Amicarbazone 571.15 g ai/ha
  Control % PANMA Observed: 91.25%
[2]; Amicarbazone 589.30 g ai/ha
  Control % PANMA Observed: 90.00%
[2]; Amicarbazone 594.00 g ai/ha
  Control % PANMA Observed: 86.25%
[2]; Amicarbazone 687.50 g ai/ha
  Control % PANMA Observed: 95.00%
[2]; Amicarbazone 761.54 g ai/ha
  Control % PANMA Observed: 98.25%
[2]; Amicarbazone 792.00 g ai/ha
  Control % PANMA Observed: 88.75%
